From patent US10906915B2, “Substituted pyrazoloazepin-4-ones and their use as phosphodiesterase inhibitors” (LEO Pharma A/S, priority 2016, dated 2021) come the findings set out here.

Chain of human PDE4D catalytic domain (Q08499 380-740 limits assumed): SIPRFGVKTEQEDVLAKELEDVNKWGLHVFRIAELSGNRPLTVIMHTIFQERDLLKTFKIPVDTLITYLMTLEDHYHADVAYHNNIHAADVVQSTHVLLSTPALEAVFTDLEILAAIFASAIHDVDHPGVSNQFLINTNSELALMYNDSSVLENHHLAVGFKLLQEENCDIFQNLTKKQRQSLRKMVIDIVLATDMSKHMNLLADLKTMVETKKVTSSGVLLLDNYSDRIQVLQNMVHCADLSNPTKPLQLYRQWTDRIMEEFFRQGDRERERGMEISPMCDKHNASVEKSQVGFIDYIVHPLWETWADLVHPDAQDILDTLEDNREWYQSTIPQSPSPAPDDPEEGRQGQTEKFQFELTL

The experiment has as its target human PDE4D catalytic domain (UniProt no. Q08499) (Homo sapiens (Human), UniProt Q08499). The experiment can be described thus: PDE4 assay (TR-FRET, FAM-cAMP cleavage). The format is biochemical. As to conditions: human PDE4D catalytic domain; molar concentration giving 50% inhibition of substrate cleavage; read-out: PDE4 IC50 range. In outline:
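PDE4D catalytic domain ([…]) was incubated with unlabelled cAMP plus FAM-cAMP and titrated compound, stopped with binding buffer of metal-ion nanoparticles and Tb donor. AMP generation read by TR-FRET; IC50 as 50% inhibition of cleavage versus controls, reported as nM ranges.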
In general terms: Time-resolved FRET reads energy transfer from a long-lived donor to a nearby acceptor.
In general, IC50 refers to the concentration needed to halve the response being measured. For the compound `CCc1nn(C[C@@H](C)COC(=O)c2c(F)cccc2F)c2c1C(=O)NCC1(CCOCC1)C2` [Example 176, [(2R)-3-(3-ethyl-4-oxo-spiro[6,8-dihydro-5H-pyrazolo[4,3-c]azepine-7,4′-tetrahydropyran]-1-yl)-2-methyl-propyl] 2,6-difluorobenzoate], the IC50 was below 100 nM.

In the case of `CCc1nn(C[C@@H](C)COC(=O)c2cc(F)ccc2F)c2c1C(=O)NCC1(CCOCC1)C2` [Example 177, [(2R)-3-(3-ethyl-4-oxo-spiro[6,8-dihydro-5H-pyrazolo[4,3-c]azepine-7,4′-tetrahydropyran]-1-yl)-2-methyl-propyl] 2,5-difluorobenzoate], the IC50 is below 100 nM.

For `CCc1nn(C[C@@H](C)COC(=O)c2ccc(F)c(F)c2)c2c1C(=O)NCC1(CCOCC1)C2` [Example 178, [(2R)-3-(3-ethyl-4-oxo-spiro[6,8-dihydro-5H-pyrazolo[4,3-c]azepine-7,4′-tetrahydropyran]-1-yl)-2-methyl-propyl] 3,4-difluorobenzoate], the half-inhibitory concentration (IC50) is below 100 nM.

Take `CCc1nn(C[C@@H](C)COC(=O)c2cccc(F)c2F)c2c1C(=O)NCC1(CCOCC1)C2` [Example 179, [(2R)-3-(3-ethyl-4-oxo-spiro[6,8-dihydro-5H-pyrazolo[4,3-c]azepine-7,4′-tetrahydropyran]-1-yl)-2-methyl-propyl] 2,3-difluorobenzoate]: the IC50 was below 100 nM.

Regarding `CCc1nn(C[C@@H](C)COC(=O)c2ccc(C(C)=O)cc2)c2c1C(=O)NCC1(CCOCC1)C2` [Example 180, [(2R)-3-(3-ethyl-4-oxo-spiro[6,8-dihydro-5H-pyrazolo[4,3-c]azepine-7,4′-tetrahydropyran]-1-yl)-2-methyl-propyl] 4-acetylbenzoate], the IC50 was below 100 nM.

Turning to `CCc1nn(C[C@@H](C)COC(=O)c2cccc(C(C)=O)c2)c2c1C(=O)NCC1(CCOCC1)C2` [Example 181, [(2R)-3-(3-ethyl-4-oxo-spiro[6,8-dihydro-5H-pyrazolo[4,3-c]azepine-7,4′-tetrahydropyran]-1-yl)-2-methyl-propyl] 3-acetylbenzoate], the half-inhibitory concentration (IC50) was below 100 nM.

For the compound `CCc1nn(C[C@@H](C)COC(=O)c2cc(F)cc(C#N)c2)c2c1C(=O)NCC1(CCOCC1)C2` [Example 182, [(2R)-3-(3-ethyl-4-oxo-spiro[6,8-dihydro-5H-pyrazolo[4,3-c]azepine-7,4′-tetrahydropyran]-1-yl)-2-methyl-propyl] 3-cyano-5-fluoro-benzoate], the 50% inhibitory concentration (IC50) was below 100 nM.

With `CCc1nn(C[C@@H](C)COC(=O)c2cc(C#N)ccc2F)c2c1C(=O)NCC1(CCOCC1)C2` [Example 183, [(2R)-3-(3-ethyl-4-oxo-spiro[6,8-dihydro-5H-pyrazolo[4,3-c]azepine-7,4′-tetrahydropyran]-1-yl)-2-methyl-propyl] 5-cyano-2-fluoro-benzoate], the 50% inhibitory concentration (IC50) was below 100 nM.

For `CCc1nn(C[C@@H](C)COC(=O)c2ccc(F)c(C#N)c2)c2c1C(=O)NCC1(CCOCC1)C2` [Example 184, [(2R)-3-(3-ethyl-4-oxo-spiro[6,8-dihydro-5H-pyrazolo[4,3-c]azepine-7,4′-tetrahydropyran]-1-yl)-2-methyl-propyl] 3-cyano-4-fluoro-benzoate], the IC50 was below 100 nM.

Consider `CCc1nn(C[C@@H](C)COC(=O)c2ccc(C#N)c(F)c2)c2c1C(=O)NCC1(CCOCC1)C2` [Example 185, [(2R)-3-(3-ethyl-4-oxo-spiro[6,8-dihydro-5H-pyrazolo[4,3-c]azepine-7,4′-tetrahydropyran]-1-yl)-2-methyl-propyl] 4-cyano-3-fluoro-benzoate], for which the IC50 is below 100 nM.

In the case of `CCc1nn(C[C@@H](C)COC(=O)c2ccc(OC)c(C)c2)c2c1C(=O)NCC1(CCOCC1)C2` [Example 186, [(2R)-3-(3-ethyl-4-oxo-spiro[6,8-dihydro-5H-pyrazolo[4,3-c]azepine-7,4′-tetrahydropyran]-1-yl)-2-methyl-propyl] 4-methoxy-3-methyl-benzoate], the 50% inhibitory concentration (IC50) is below 100 nM.

With `CCc1nn(C[C@@H](C)COC(=O)c2ccc(C)cc2OC)c2c1C(=O)NCC1(CCOCC1)C2` [Example 187, [(2R)-3-(3-ethyl-4-oxo-spiro[6,8-dihydro-5H-pyrazolo[4,3-c]azepine-7,4′-tetrahydropyran]-1-yl)-2-methyl-propyl] 2-methoxy-4-methyl-benzoate], the IC50 is below 100 nM.

`CCc1nn(C[C@@H](C)COC(=O)c2ccc(OC)c(F)c2)c2c1C(=O)NCC1(CCOCC1)C2` [Example 188, [(2R)-3-(3-ethyl-4-oxo-spiro[6,8-dihydro-5H-pyrazolo[4,3-c]azepine-7,4′-tetrahydropyran]-1-yl)-2-methyl-propyl] 3-fluoro-4-methoxy-benzoate]: the 50% inhibitory concentration (IC50) was below 100 nM.

As to `CCc1nn(C[C@@H](C)COC(=O)c2ccc(OC)cc2F)c2c1C(=O)NCC1(CCOCC1)C2` [Example 189, [(2R)-3-(3-ethyl-4-oxo-spiro[6,8-dihydro-5H-pyrazolo[4,3-c]azepine-7,4′-tetrahydropyran]-1-yl)-2-methyl-propyl] 2-fluoro-4-methoxy-benzoate], the IC50 is below 100 nM.

Consider `CCc1nn(C[C@@H](C)COC(=O)c2cccc(OC)c2F)c2c1C(=O)NCC1(CCOCC1)C2` [Example 190, [(2R)-3-(3-ethyl-4-oxo-spiro[6,8-dihydro-5H-pyrazolo[4,3-c]azepine-7,4′-tetrahydropyran]-1-yl)-2-methyl-propyl] 2-fluoro-3-methoxy-benzoate], for which the half-inhibitory concentration (IC50) was below 100 nM.

In the case of `CCc1nn(C[C@@H](C)COC(=O)c2cc(OC)ccc2F)c2c1C(=O)NCC1(CCOCC1)C2` [Example 191, [(2R)-3-(3-ethyl-4-oxo-spiro[6,8-dihydro-5H-pyrazolo[4,3-c]azepine-7,4′-tetrahydropyran]-1-yl)-2-methyl-propyl] 2-fluoro-5-methoxy-benzoate], the IC50 was below 100 nM.

Consider `CCc1nn(C[C@@H](C)COC(=O)c2cccc(F)c2OC)c2c1C(=O)NCC1(CCOCC1)C2` [Example 192, [(2R)-3-(3-ethyl-4-oxo-spiro[6,8-dihydro-5H-pyrazolo[4,3-c]azepine-7,4′-tetrahydropyran]-1-yl)-2-methyl-propyl] 3-fluoro-2-methoxy-benzoate], for which the concentration for half-maximal inhibition (IC50) is below 100 nM.

As for `CCc1nn(C[C@@H](C)COC(=O)c2ccc(F)c(OC)c2)c2c1C(=O)NCC1(CCOCC1)C2` [Example 193, [(2R)-3-(3-ethyl-4-oxo-spiro[6,8-dihydro-5H-pyrazolo[4,3-c]azepine-7,4′-tetrahydropyran]-1-yl)-2-methyl-propyl] 4-fluoro-3-methoxy-benzoate], the IC50 was below 100 nM.

Consider `CCc1nn(C[C@@H](C)COC(=O)c2c(F)cccc2OC)c2c1C(=O)NCC1(CCOCC1)C2` [Example 194, [(2R)-3-(3-ethyl-4-oxo-spiro[6,8-dihydro-5H-pyrazolo[4,3-c]azepine-7,4′-tetrahydropyran]-1-yl)-2-methyl-propyl] 2-fluoro-6-methoxy-benzoate], for which the IC50 was below 100 nM.

Consider `CCc1nn(C[C@@H](C)COC(=O)c2ccc(F)cc2OC)c2c1C(=O)NCC1(CCOCC1)C2` [Example 195, [(2R)-3-(3-ethyl-4-oxo-spiro[6,8-dihydro-5H-pyrazolo[4,3-c]azepine-7,4′-tetrahydropyran]-1-yl)-2-methyl-propyl] 4-fluoro-2-methoxy-benzoate], for which the IC50 was below 100 nM.

Turning to `CCc1nn(C[C@@H](C)COC(=O)c2ccc(Cl)cc2C)c2c1C(=O)NCC1(CCOCC1)C2` [Example 196, [(2R)-3-(3-ethyl-4-oxo-spiro[6,8-dihydro-5H-pyrazolo[4,3-c]azepine-7,4′-tetrahydropyran]-1-yl)-2-methyl-propyl] 4-chloro-2-methyl-benzoate], the IC50 is below 100 nM.

`CCc1nn(C[C@@H](C)COC(=O)c2ccc(C(F)F)cc2)c2c1C(=O)NCC1(CCOCC1)C2` [Example 197, [(2R)-3-(3-ethyl-4-oxo-spiro[6,8-dihydro-5H-pyrazolo[4,3-c]azepine-7,4′-tetrahydropyran]-1-yl)-2-methyl-propyl] 4-(difluoromethyl)benzoate]: the IC50 is below 100 nM.

For the compound `CCc1nn(C[C@@H](C)COC(=O)c2cccc(Cl)c2F)c2c1C(=O)NCC1(CCOCC1)C2` [Example 198, [(2R)-3-(3-ethyl-4-oxo-spiro[6,8-dihydro-5H-pyrazolo[4,3-c]azepine-7,4′-tetrahydropyran]-1-yl)-2-methyl-propyl] 3-chloro-2-fluoro-benzoate], the half-maximal inhibitory concentration (IC50) is below 100 nM.

`CCc1nn(C[C@@H](C)COC(=O)c2ccc(Cl)c(F)c2)c2c1C(=O)NCC1(CCOCC1)C2` [Example 199, [(2R)-3-(3-ethyl-4-oxo-spiro[6,8-dihydro-5H-pyrazolo[4,3-c]azepine-7,4′-tetrahydropyran]-1-yl)-2-methyl-propyl] 4-chloro-3-fluoro-benzoate]: the IC50 is below 100 nM.

For `CCc1nn(C[C@@H](C)COC(=O)c2cc(F)ccc2Cl)c2c1C(=O)NCC1(CCOCC1)C2` [Example 200, [(2R)-3-(3-ethyl-4-oxo-spiro[6,8-dihydro-5H-pyrazolo[4,3-c]azepine-7,4′-tetrahydropyran]-1-yl)-2-methyl-propyl] 2-chloro-5-fluoro-benzoate], the half-inhibitory concentration (IC50) was below 100 nM.

For the compound `CCc1nn(C[C@@H](C)COC(=O)c2cccc(F)c2Cl)c2c1C(=O)NCC1(CCOCC1)C2` [Example 201, [(2R)-3-(3-ethyl-4-oxo-spiro[6,8-dihydro-5H-pyrazolo[4,3-c]azepine-7,4′-tetrahydropyran]-1-yl)-2-methyl-propyl] 2-chloro-3-fluoro-benzoate], the IC50 was below 100 nM.

Regarding `CCc1nn(C[C@@H](C)COC(=O)c2cc(Cl)ccc2F)c2c1C(=O)NCC1(CCOCC1)C2` [Example 202, [(2R)-3-(3-ethyl-4-oxo-spiro[6,8-dihydro-5H-pyrazolo[4,3-c]azepine-7,4′-tetrahydropyran]-1-yl)-2-methyl-propyl] 5-chloro-2-fluoro-benzoate], the IC50 is below 100 nM.
